Tests used:
[1] = tested on: full length SMN2 minigene mRNA containing SMN2 exon 7; assay: SMN2 minigene mRNA splicing RT-qPCR assay in cultured cells; format: cell-based, human; conditions: Homo sapiens, HEK293-H; HEK293H cells stably transfected with SMN2-A minigene, 24 hours, 7-point concentration curve; concentration giving 1.5-fold full length SMN2 mRNA vs vehicle; read-out: EC1.5x for production of full length SMN2 mRNA
Outline: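 HEK293H cells stably carrying SMN2-A minigene treated 24 h (37 °C) with compound, 7-point 3.16-fold dilution, duplicates. Multiplex RT-qPCR on lysate with exon 7/luciferase primers and exon 7–8 junction probe (minigene-specific). Full-length transcript normalised to GAPDH by modified ΔΔCt, expressed relative to vehicle-treated cells.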

[2] = tested on: Smn protein; assay: Smn protein assay in cultured cells (SMN HTRF); format: cell-based, human; conditions: SMA patient fibroblast cells (GM03813), 48 hours; for EC1.5x for Smn protein expression: 7-point concentration curve, concentration producing 1.5 times Smn protein vs DMSO vehicle; for maximum fold (Fold) increase of Smn protein: 7-point concentration data, relative to vehicle control
Outline: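 SMA patient fibroblasts, 5,000 per well in DMEM-10% FBS, exposed 48 h at 37° C. to a 7-point, 3.16-fold compound series in triplicate. RIPA lysates read by SMN HTRF (665/620 nm, overnight at room temperature); ΔF over blank expressed as fold of vehicle.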

| SMILES | EC (1.5-fold) [1] [µM] | EC1.5x for Smn protein expression [2] | maximum fold (Fold) increase of Smn protein [2] | melting point |
| --- | --- | --- | --- | --- |
| Cc1cn2cc(-c3cc4ccc(N5CCN(C(C)(C)C)CC5)cc4c(=O)o3)nc2c(C)n1 [Cpd 83, 7-(4-tert-butylpiperazin-1-yl)-3-(6,8-dimethylimidazo[1,2-a]pyrazin-2-yl)-1H-isochromen-1-one] | 0.1 to 0.3 | *** (an EC1.5× between >0.3 nM and ≦1 nM is indicated by three stars (***)) | **** (a fold increase between >1.5 and ≦1.65 is indicated by four stars (****)) | 300 to 302 °C |
| Cc1cn2cc(-c3cc4ccc(N5CCN(C6CC6)CC5)cc4c(=O)o3)nc2c(C)n1 [Cpd 84, 7-(4-cyclopropylpiperazin-1-yl)-3-(6,8-dimethylimidazo[1,2-a]pyrazin-2-yl)-1H-isochromen-1-one] | 0.1 to 0.3 | *** (an EC1.5× between >0.3 nM and ≦1 nM is indicated by three stars (***)) | ***** (a fold increase >1.65 is indicated by five stars (*****)) | 260 °C (dec.) |
| COCCN1CCN(c2ccc3cc(-c4cn5cc(C)nc(C)c5n4)oc(=O)c3c2)CC1 [Cpd 85, 3-(6,8-dimethylimidazo[1,2-a]pyrazin-2-yl)-7-[4-(2-methoxyethyl)piperazin-1-yl]-1H-isochromen-1-one] | 0.1 to 0.3 | *** (an EC1.5× between >0.3 nM and ≦1 nM is indicated by three stars (***)) | ***** (a fold increase >1.65 is indicated by five stars (*****)) | 192 to 194 °C |
| Cc1cn2cc(-c3cc4ccc(N5CCN(CC(C)C)CC5)cc4c(=O)o3)nc2c(C)n1 [Cpd 86, 3-(6,8-dimethylimidazo[1,2-a]pyrazin-2-yl)-7-[4-(2-methylpropyl)piperazin-1-yl]-1H-isochromen-1-one] | ≤ 0.1 | – | *** (a fold increase between >1.35 and ≦1.5 is indicated by three stars (***)) | 243 to 245 °C |
| Cc1cn2cc(-c3cc4ccc(N5CCN(C6CCC6)CC5)cc4c(=O)o3)nc2c(C)n1 [Cpd 87, 7-(4-cyclobutylpiperazin-1-yl)-3-(6,8-dimethylimidazo[1,2-a]pyrazin-2-yl)-1H-isochromen-1-one] | ≤ 0.1 | **** (an EC1.5×≦0.3 nM is indicated by four stars (****)) | **** (a fold increase between >1.5 and ≦1.65 is indicated by four stars (****)) | 279 to 281 °C |
| Cc1cn2cc(-c3cc4ccc(C5=CCNCC5)cc4c(=O)o3)nc2c(C)n1 [Cpd 88, 3-(6,8-dimethylimidazo[1,2-a]pyrazin-2-yl)-7-(1,2,3,6-tetrahydropyridin-4-yl)-1H-isochromen-1-one] | ≤ 0.1 | **** (an EC1.5×≦0.3 nM is indicated by four stars (****)) | **** (a fold increase between >1.5 and ≦1.65 is indicated by four stars (****)) | 266 °C (dec.) |
| Cc1cn2cc(-c3cc4ccc(C5=CCN(C)CC5)cc4c(=O)o3)nc2c(C)n1 [Cpd 89, 3-(6,8-dimethylimidazo[1,2-a]pyrazin-2-yl)-7-(1-methyl-1,2,3,6-tetrahydropyridin-4-yl)-1H-isochromen-1-one] | ≤ 0.1 | **** (an EC1.5×≦0.3 nM is indicated by four stars (****)) | **** (a fold increase between >1.5 and ≦1.65 is indicated by four stars (****)) | 240 to 242 °C |
| CCN1CC=C(c2ccc3cc(-c4cn5cc(C)nc(C)c5n4)oc(=O)c3c2)CC1 [Cpd 90, 3-(6,8-dimethylimidazo[1,2-a]pyrazin-2-yl)-7-(1-ethyl-1,2,3,6-tetrahydropyridin-4-yl)-1H-isochromen-1-one] | ≤ 0.1 | **** (an EC1.5×≦0.3 nM is indicated by four stars (****)) | ***** (a fold increase >1.65 is indicated by five stars (*****)) | 227 to 229 °C |
| Cc1cn2cc(-c3cc4ccc(C5=CCN(C(C)C)CC5)cc4c(=O)o3)nc2c(C)n1 [Cpd 91, 3-(6,8-dimethylimidazo[1,2-a]pyrazin-2-yl)-7-[1-(propan-2-yl)-1,2,3,6-tetrahydropyridin-4-yl]-1H-isochromen-1-one] | ≤ 0.1 | *** (an EC1.5× between >0.3 nM and ≦1 nM is indicated by three stars (***)) | *** (a fold increase between >1.35 and ≦1.5 is indicated by three stars (***)) | 259 to 261 °C |
| COCCN1CC=C(c2ccc3cc(-c4cn5cc(C)nc(C)c5n4)oc(=O)c3c2)CC1 [Cpd 92, 3-(6,8-dimethylimidazo[1,2-a]pyrazin-2-yl)-7-[1-(2-methoxyethyl)-1,2,3,6-tetrahydropyridin-4-yl]-1H-isochromen-1-one] | ≤ 0.1 | **** (an EC1.5×≦0.3 nM is indicated by four stars (****)) | ***** (a fold increase >1.65 is indicated by five stars (*****)) | 174 to 176 °C |
| Cc1cn2cc(-c3cc4ccc(C5=CCN(C6CC6)CC5)cc4c(=O)o3)nc2c(C)n1 [Cpd 93, 7-(1-cyclopropyl-1,2,3,6-tetrahydropyridin-4-yl)-3-(6,8-dimethylimidazo[1,2-a]pyrazin-2-yl)-1H-isochromen-1-one] | ≤ 0.1 | **** (an EC1.5×≦0.3 nM is indicated by four stars (****)) | ***** (a fold increase >1.65 is indicated by five stars (*****)) | 230 to 232 °C |
| Cc1cn2cc(-c3cc4ccc(C5=CCN(C6CCC6)CC5)cc4c(=O)o3)nc2c(C)n1 [Cpd 94, 7-(1-cyclobutyl-1,2,3,6-tetrahydropyridin-4-yl)-3-(6,8-dimethylimidazo[1,2-a]pyrazin-2-yl)-1H-isochromen-1-one] | ≤ 0.1 | *** (an EC1.5× between >0.3 nM and ≦1 nM is indicated by three stars (***)) | ***** (a fold increase >1.65 is indicated by five stars (*****)) | 252 to 254 °C |
| CCCN1CC=C(c2ccc3cc(-c4cn5cc(C)nc(C)c5n4)oc(=O)c3c2)CC1 [Cpd 95, 3-(6,8-dimethylimidazo[1,2-a]pyrazin-2-yl)-7-(1-propyl-1,2,3,6-tetrahydropyridin-4-yl)-1H-isochromen-1-one] | ≤ 0.1 | **** (an EC1.5×≦0.3 nM is indicated by four stars (****)) | ***** (a fold increase >1.65 is indicated by five stars (*****)) | 226 to 228 °C |
| Cc1cn2cc(-c3cc4ccc(C5CCNCC5)cc4c(=O)o3)nc2c(C)n1 [Cpd 96, 3-(6,8-dimethylimidazo[1,2-a]pyrazin-2-yl)-7-(piperidin-4-yl)-1H-isochromen-1-one] | ≤ 0.1 | **** (an EC1.5×≦0.3 nM is indicated by four stars (****)) | ***** (a fold increase >1.65 is indicated by five stars (*****)) | 218 to 220 °C |
| Cc1cn2cc(-c3cc4ccc(N5CCN(C6COC6)CC5)cc4c(=O)o3)nc2c(C)n1 [Cpd 97, 3-(6,8-dimethylimidazo[1,2-a]pyrazin-2-yl)-7-[4-(oxetan-3-yl)piperazin-1-yl]-1H-isochromen-1-one] | 1 to 3 | – | *** (a fold increase between >1.35 and ≦1.5 is indicated by three stars (***)) | 294 to 296 °C |
| Cc1cn2cc(-c3cc4ccc(C5=CCN(C6COC6)CC5)cc4c(=O)o3)nc2c(C)n1 [Cpd 98, 3-(6,8-dimethylimidazo[1,2-a]pyrazin-2-yl)-7-[1-(oxetan-3-yl)-1,2,3,6-tetrahydropyridin-4-yl]-1H-isochromen-1-one] | ≤ 0.1 | *** (an EC1.5× between >0.3 nM and ≦1 nM is indicated by three stars (***)) | ***** (a fold increase >1.65 is indicated by five stars (*****)) | 253 to 255 °C |
| Cc1nc(Cl)cn2cc(-c3cc4ccc(N5CCNCC5)cc4c(=O)o3)nc12 [Cpd 99, 3-(6-chloro-8-methylimidazo[1,2-a]pyrazin-2-yl)-7-(piperazin-1-yl)-1H-isochromen-1-one] | ≤ 0.1 | *** (an EC1.5× between >0.3 nM and ≦1 nM is indicated by three stars (***)) | ***** (a fold increase >1.65 is indicated by five stars (*****)) | 221 to 226 °C |
| Cc1nc(Cl)cn2cc(-c3cc4ccc(N5CCN(C)CC5)cc4c(=O)o3)nc12 [Cpd 100, 3-(6-chloro-8-methylimidazo[1,2-a]pyrazin-2-yl)-7-(4-methylpiperazin-1-yl)-1H-isochromen-1-one] | ≤ 0.1 | *** (an EC1.5× between >0.3 nM and ≦1 nM is indicated by three stars (***)) | ***** (a fold increase >1.65 is indicated by five stars (*****)) | 291 to 296 °C |

Source: patent publication US9399649B2, “Compounds for treating spinal muscular atrophy” (PTC Therapeutics Inc., priority 2012, dated 2016)
